system: 12 cancer cell lines: LCL (H460/lung), MACL (MCF7, breast), LXFL (529L, lung), LXFA (629L, lung), MEXF (462NL, melanoma), MEXF (514L, melanoma), MAXF (401NL …); test: Biological activity against 12 cancer cell lines (IC70 averaged over all cell lines); format: cell-based; conditions: mean over 12 cancer cell lines; 5 test concentrations
Description: Biological Activity Against 12 Cancer Cell Lines: LCL (H460/lung), MACL (MCF7, breast), LXFL ([…], lung), LXFA ([…], lung), MEXF (462NL, melanoma), MEXF ([…], melanoma), MAXF (401NL, breast), RXF ([…], renal), RXF ([…], renal), UXF ([…], uterus), […]1). Efficacy (IC70), averaged over all cell lines in μg/ml with 5 test concentrations.

Row | Structure (SMILES) | Efficacy (IC70), averaged over all cell lines [µg/mL]
1 | COc1cccc2c1C(=O)c1c(O)c3c(c(O)c1C2=O)C[C@@](O)(C(=O)CO)C[C@@H]3O[C@H]1C[C@H](N)[C@H](O)[C@H](C)O1 [Adriamycin] | 0.0210
2 | C/C=C/C=C/c1cc2cc3c(c(O)c2c(=O)[nH]1)[C@@]1(C(=O)c2c(O)c4c(c(O)c2C1=O)C(=O)C(OC)=CC4=O)C(SCCO)C3 (stereo partly drawn) [Example 3, (8S)-4′,9,9′-trihydroxy-6′-methoxy-7(2-hydroxyethylmercapto)-3-[(1E,3E)-penta-1,3-dienyl]-6,7-dihydrospiro[cyclopenta[g]isoquinoline-8,2′-cyclopenta[b]-napthalene]-1,1′-3′,5′,8′(2H)-pentone] | 0.1340
3 | N.N.[Cl][Pt][Cl] [Cisplatin] | 37.1020
4 | C/C=C/C=C/c1cc2cc3c(c(O)c2c(=O)[nH]1)C1(CC3)C(=O)c2c(O)c3c(c(O)c2C1=O)C(=O)C(OC)=CC3=O (stereo not shown) [Fredericamycin] | 0.2790

— patent publication US7244741B2, “Fredericamycin derivatives as medicaments for treating tumours” (Biofrontera Discovery GmbH, priority 2002, dated 2007)
